Source: US11739098B2 (BRISTOL-MYERS SQUIBB COMPANY, priority 2017, dated 2023)

Experiments:
Assay type in all cases: cell-based
human TLR9 = molecular target: T1, human TLR9 (Homo sapiens, UniProt Q9NR96); test: TLR9 inhibition reporter assay (HEK-Blue cells, SEAP reporter, ODN2006 stimulation); conditions: HEK-Blue cells overexpressing human TLR9, SEAP reporter, ODN2006 5 nM
T1 construct: host or cells: HEK-Blue cells (HEK293-derived reporter line)
T1 sequence (Q9NR96 26-1032): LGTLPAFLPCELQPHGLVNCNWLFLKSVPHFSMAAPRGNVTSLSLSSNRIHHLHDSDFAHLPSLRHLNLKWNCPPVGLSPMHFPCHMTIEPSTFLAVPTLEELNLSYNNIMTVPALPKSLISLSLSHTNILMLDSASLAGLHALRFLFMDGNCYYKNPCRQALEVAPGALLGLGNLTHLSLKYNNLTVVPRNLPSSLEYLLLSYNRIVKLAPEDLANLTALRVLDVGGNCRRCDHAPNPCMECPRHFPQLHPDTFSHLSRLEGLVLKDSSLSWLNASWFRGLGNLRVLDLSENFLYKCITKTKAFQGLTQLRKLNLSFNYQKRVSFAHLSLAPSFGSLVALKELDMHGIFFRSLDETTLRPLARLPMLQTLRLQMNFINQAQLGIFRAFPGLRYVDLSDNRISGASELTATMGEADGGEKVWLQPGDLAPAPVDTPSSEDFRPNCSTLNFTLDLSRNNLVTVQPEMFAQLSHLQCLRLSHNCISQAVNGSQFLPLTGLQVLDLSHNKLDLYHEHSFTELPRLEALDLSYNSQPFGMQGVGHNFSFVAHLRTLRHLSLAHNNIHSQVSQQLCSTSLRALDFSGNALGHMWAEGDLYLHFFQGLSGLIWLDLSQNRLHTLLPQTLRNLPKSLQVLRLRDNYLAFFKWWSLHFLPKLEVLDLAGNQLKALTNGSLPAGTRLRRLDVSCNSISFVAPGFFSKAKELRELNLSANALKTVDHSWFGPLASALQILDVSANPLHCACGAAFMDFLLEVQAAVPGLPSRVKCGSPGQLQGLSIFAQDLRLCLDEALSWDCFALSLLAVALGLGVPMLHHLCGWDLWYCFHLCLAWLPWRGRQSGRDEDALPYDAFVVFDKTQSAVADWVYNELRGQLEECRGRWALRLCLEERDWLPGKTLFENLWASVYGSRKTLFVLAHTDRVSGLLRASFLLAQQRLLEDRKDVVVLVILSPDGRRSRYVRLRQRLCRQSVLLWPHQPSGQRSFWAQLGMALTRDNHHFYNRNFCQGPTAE
In short: (§1)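 Agonists (final): TLR7 gardiquimod 7.5 μM; TLR8 R848 15.9 μM; TLR9 ODN2006 5 nM. HEK-Blue reporter cells, 30 min RT compound pre-incubation, 0.05 nM–50 μM dose range, 22 h at 37 °C, colorimetric SEAP detection medium. % inhibition relative to agonist+DMSO and known-inhibitor wells.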

human TLR8 = molecular target: T2, human TLR8 (Homo sapiens, UniProt Q9NR97); test: TLR8 inhibition reporter assay (HEK-Blue cells, SEAP reporter, R848 stimulation); conditions: HEK-Blue cells overexpressing human TLR8, SEAP reporter, R848 15.9 μM
T2 construct: host or cells: HEK-Blue cells (HEK293-derived reporter line)
T2 sequence (Q9NR97 27-1041): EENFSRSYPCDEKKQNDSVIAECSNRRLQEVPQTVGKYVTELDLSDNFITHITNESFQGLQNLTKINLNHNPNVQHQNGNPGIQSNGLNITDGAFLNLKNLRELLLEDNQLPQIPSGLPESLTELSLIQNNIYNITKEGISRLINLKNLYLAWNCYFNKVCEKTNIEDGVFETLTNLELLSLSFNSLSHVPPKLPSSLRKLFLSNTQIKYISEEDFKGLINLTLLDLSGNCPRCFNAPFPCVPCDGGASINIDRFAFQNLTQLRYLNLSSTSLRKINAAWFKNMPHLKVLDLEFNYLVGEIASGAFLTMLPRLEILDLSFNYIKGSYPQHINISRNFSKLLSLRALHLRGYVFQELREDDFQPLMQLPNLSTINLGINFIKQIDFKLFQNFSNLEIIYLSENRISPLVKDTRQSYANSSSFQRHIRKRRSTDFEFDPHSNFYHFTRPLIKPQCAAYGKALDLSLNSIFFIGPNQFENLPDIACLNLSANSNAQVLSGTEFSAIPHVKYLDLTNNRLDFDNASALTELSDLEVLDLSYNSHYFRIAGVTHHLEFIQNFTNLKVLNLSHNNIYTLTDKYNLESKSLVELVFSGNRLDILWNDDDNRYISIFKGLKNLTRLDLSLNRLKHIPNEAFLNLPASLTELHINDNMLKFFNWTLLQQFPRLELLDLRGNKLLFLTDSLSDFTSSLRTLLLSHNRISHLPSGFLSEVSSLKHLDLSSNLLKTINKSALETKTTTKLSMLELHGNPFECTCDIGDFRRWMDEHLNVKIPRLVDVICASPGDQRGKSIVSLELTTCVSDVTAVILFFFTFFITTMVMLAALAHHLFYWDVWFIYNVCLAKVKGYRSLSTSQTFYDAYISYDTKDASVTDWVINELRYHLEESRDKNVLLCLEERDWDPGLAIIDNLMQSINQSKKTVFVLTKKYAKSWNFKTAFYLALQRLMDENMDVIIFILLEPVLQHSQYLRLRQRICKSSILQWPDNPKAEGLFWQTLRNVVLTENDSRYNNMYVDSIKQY
In short: as §1

human TLR7 = molecular target: T3, human TLR7 (Homo sapiens, UniProt Q9NYK1); test: TLR7 inhibition reporter assay (HEK-Blue cells, SEAP reporter, gardiquimod stimulation); conditions: HEK-Blue cells overexpressing human TLR7, SEAP reporter, gardiquimod 7.5 μM
T3 construct: host or cells: HEK-Blue cells (HEK293-derived reporter line)
T3 sequence (Q9NYK1 27-1049): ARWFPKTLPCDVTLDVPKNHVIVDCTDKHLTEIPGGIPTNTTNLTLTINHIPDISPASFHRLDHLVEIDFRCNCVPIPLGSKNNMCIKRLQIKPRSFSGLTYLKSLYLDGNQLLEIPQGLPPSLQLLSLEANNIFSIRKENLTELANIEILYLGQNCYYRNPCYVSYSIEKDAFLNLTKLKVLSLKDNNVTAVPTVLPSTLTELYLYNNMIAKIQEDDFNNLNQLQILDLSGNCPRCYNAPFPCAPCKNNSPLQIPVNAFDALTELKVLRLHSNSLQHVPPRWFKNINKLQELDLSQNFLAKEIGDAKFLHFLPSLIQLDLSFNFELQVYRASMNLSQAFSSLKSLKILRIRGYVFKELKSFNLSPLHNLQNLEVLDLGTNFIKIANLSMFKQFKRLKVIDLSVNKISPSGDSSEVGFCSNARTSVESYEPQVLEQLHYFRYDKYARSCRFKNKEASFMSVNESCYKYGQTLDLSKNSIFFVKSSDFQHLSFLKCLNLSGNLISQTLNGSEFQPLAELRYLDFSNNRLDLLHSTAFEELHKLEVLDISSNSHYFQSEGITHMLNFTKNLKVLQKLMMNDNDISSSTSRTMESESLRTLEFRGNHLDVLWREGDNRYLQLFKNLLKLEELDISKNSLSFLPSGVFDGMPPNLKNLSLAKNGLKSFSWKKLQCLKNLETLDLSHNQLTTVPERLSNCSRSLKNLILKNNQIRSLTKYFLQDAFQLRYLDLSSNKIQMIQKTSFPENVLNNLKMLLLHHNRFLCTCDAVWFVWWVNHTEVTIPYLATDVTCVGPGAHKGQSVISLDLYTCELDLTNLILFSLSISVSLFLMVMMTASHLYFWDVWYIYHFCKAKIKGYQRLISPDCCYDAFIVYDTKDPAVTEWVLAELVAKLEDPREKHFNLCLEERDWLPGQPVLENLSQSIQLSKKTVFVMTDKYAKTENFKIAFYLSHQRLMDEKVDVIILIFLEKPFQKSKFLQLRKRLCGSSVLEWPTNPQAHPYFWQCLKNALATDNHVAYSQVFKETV
In short: as §1

| SMILES | IC50 (human TLR9) | IC50 (human TLR8) | IC50 (human TLR7) |
| --- | --- | --- | --- |
| Cc1nc2cc(-c3[nH]c4ccc(C5CCNCC5)cc4c3C(C)C)ccn2n1 [Example 156, 7-(3-isopropyl-5-(piperidin-4-yl)-1H-indol-2-yl)-2-methyl-[1,2,4] triazolo[1,5-a]pyridine] | 100 to 1000 nM | 100 to 1000 nM | < 100 nM |
| CC(C)c1c(-c2ccc3nccn3c2)[nH]c2ccc(C3CCN(C(=O)CN(C)C)CC3)cc12 [Example 572, 2-(dimethylamino)-1-(4-(2-(imidazo[1,2-a]pyridin-6-yl)-3-isopropyl-1H-indol-5-yl)piperidin-1-yl)ethan-1-one] | 1000 to 50000 nM | 100 to 1000 nM | < 100 nM |
| CC(C)c1c(-c2ccnc3[nH]ncc23)[nH]c2ccc(C3CCN(CCCN(C)C)CC3)cc12 [Example 845, 3-(4-(3-isopropyl-2-(1H-pyrazolo[3,4-b]pyridin-4-yl)-1H-indol-5-yl)piperidin-1-yl)-N,N-dimethylpropan-1-amine] | 100 to 1000 nM | 100 to 1000 nM | 100 to 1000 nM |
| CC(=O)N1CCC[C@H]1C(=O)N1CCC(c2ccc3[nH]c(-c4ccnc5[nH]ncc45)c(C(C)C)c3c2)CC1 [Example 566, (S)-1-(2-(4-(3-isopropyl-2-(1H-pyrazolo[3,4-b]pyridin-4-yl)-1H-indol-5-yl)piperidine-1-carbonyl)pyrrolidin-1-yl)ethan-1-one] | > 50000 nM | 100 to 1000 nM | 100 to 1000 nM |
| Cc1c(-c2ccnc3[nH]ccc23)[nH]c2ccc(C3CCN(C4CCN(CC(C)C)CC4)CC3)cc12 [Example 812, 4-(5-(1′-isobutyl-[1,4′-bipiperidin]-4-yl)-3-methyl-1H-indol-2-yl)-1H-pyrrolo[2,3-b]pyridine] | < 100 nM | < 100 nM | < 100 nM |
| CC(C)c1c(-c2cccn3ncnc23)[nH]c2ccc(C3CCNCC3)cc12 [Example 196, 8-(3-isopropyl-5-(piperidin-4-yl)-1H-indol-2-yl)-[1,2,4]triazolo[1,5-a]pyridine] | 1000 to 50000 nM | < 100 nM | < 100 nM |
| Cc1cc(-c2c[nH]c3nccc(-c4[nH]c5ccc(C6CCNCC6)cc5c4C)c23)n(C)n1 [Example 225, 3-(1,3-dimethyl-1H-pyrazol-5-yl)-4-(3-methyl-5-(piperidin-4-yl)-1H-indol-2-yl)-1H-pyrrolo[2,3-b]pyridine] | 100 to 1000 nM | 100 to 1000 nM | 100 to 1000 nM |
| COc1cc(-c2[nH]c3ccc(C4CCN(C5CCOCC5)CC4)cc3c2C(C)C)cn2ccnc12 [Example 706, 6-(3-isopropyl-5-(1-(tetrahydro-2H-pyran-4-yl)piperidin-4-yl)-1H-indol-2-yl)-8-methoxyimidazo[1,2-a]pyridine] | 100 to 1000 nM | < 100 nM | < 100 nM |
| CNC(=O)CN1CCC(c2ccc3[nH]c(-c4cc(OC)n5ncnc5c4)c(C(C)C)c3c2)CC1 [Example 332, 2-(4-(3-isopropyl-2-(5-methoxy-[1,2,4]triazolo[1,5-a]pyridin-7-yl)-1H-indol-5-yl)piperidin-1-yl)-N-methylacetamide] | 100 to 1000 nM | < 100 nM | < 100 nM |
| Cc1cc(-c2[nH]c3ccc(C4CCN(CC(=O)N(C)C)CC4)cc3c2C(C)C)cc2cncn12 [Example 439, 2-(4-(3-isopropyl-2-(5-methylimidazo[1,5-a]pyridin-7-yl)-1H-indol-5-yl)piperidin-1-yl)-N,N-dimethylacetamide] | 1000 to 50000 nM | < 100 nM | < 100 nM |
| Cc1cc(-c2[nH]c3ccc(C4CCN(C(=O)CCN(C)C)CC4)cc3c2C(C)C)cn2nnnc12 [Example 620, 3-(dimethylamino)-1-(4-(3-isopropyl-2-(8-methyltetrazolo[1,5-a]pyridin-6-yl)-1H-indol-5-yl)piperidin-1-yl)propan-1-one] | 1000 to 50000 nM | < 100 nM | < 100 nM |
| CC(C)c1c(-c2cnc3nn(C)cc3c2)[nH]c2ccc(C3CCN(C(=O)CN(C)C)CC3)cc12 [Example 505, 2-(dimethylamino)-1-(4-(3-isopropyl-2-(2-methyl-2H-pyrazolo[3,4-b]pyridin-5-yl)-1H-indol-5-yl)piperidin-1-yl)ethan-1-one] | 1000 to 50000 nM | > 3130 nM | 100 to 1000 nM |
| Cc1cc2cc(-c3[nH]c4ccc(C5CCN(C(=O)CN(C)C)CC5)cc4c3C(C)C)cc(CC(C)C)n2n1 [Example 524, 2-(dimethylamino)-1-(4-(2-(7-isobutyl-2-methylpyrazolo[1,5-a]pyridin-5-yl)-3-isopropyl-1H-indol-5-yl)piperidin-1-yl)ethan-1-one] | 1000 to 50000 nM | > 3130 nM | > 3130 nM |
| CC(C)c1c(-c2cnc3ccnn3c2)[nH]c2ccc(C3CCN(C(=O)C[C@H](C)O)CC3)cc12 [Example 595, (S)-3-hydroxy-1-(4-(3-isopropyl-2-(pyrazolo[1,5-a]pyrimidin-6-yl)-1H-indol-5-yl)piperidin-1-yl)butan-1-one] | > 50000 nM | > 3130 nM | > 3130 nM |
